Data published in patent US6479666B2, “Phenyl-keto-imidazolidine thioamide derivatives” (Hoffman-La Roche Inc., priority 2001, dated 2002).
Structures can show the parent of a compound that is named as a salt.

What was measured:
[1] = tested on: cynomolgus monkeys (Macaca fascicularis) challenged with Ascaris suum antigen; assay: Acute airway inflammation in the atopic primate; type: in vivo; settings: p.o., 2 hours prior to antigen challenge; lavage at 24 hour after A. suum antigen challenge
Experimental: Example 4. Acute airway inflammation in the atopic primate.
Airway inflammation in the monkey was determined using a modification of the protocol described by Turner et al. (Turner et al., 1994). Adult male cynomolgus monkeys (Macaca fascicularis, Hazelton Labs, Denver, Pa.) weighing between 3.6-5.8 kg were used in these studies.
On the day of each experiment the animals were anesthetized with ketamine hydrochloride, 12 mg/kg, and xylazine, 0.5 mg/kg, intubated with a cuffed endotracheal tube (3 mm, Mallinckrodt Medical, St. Louis, Mo.), then seated in an upright position in a specially designed Plexiglass chair (Plas-Labs, Lansing, Mich.). The endotracheal tube was connected to a heated Fleisch pneumotachograph. Airflow was measured via a Validyn differential pressure transducer (DP 45-24) that was attached to the pneumotachograph. Transpulmonary pressure was measured via a second Validyne transducer (DP 45-24) connected between a sidearm of the tracheal cannula and a 18-gauge intrapleural needle inserted in the intercostal space located below the left nipple. […]
Airway inflammation was induced by exposing the animal to an aerosol of A. Suum extract for 60 sec. […] Airway inflammation was assessed by inserting a pediatric bronchoscope into the airway lumen down to about the 4 or 5th generation bronchi and gently lavaging with 3 X 2 ml aliquots of sterile Hanks Balanced Salt Solution. […]

[2] = target: T1, VLA-4 (α4β1 integrin) binding to immobilized VCAM-1 (Homo sapiens, UniProt P05556+P13612); assay: VLA-4/VCAM-1 Screening Assay (solid-phase dual antibody ELISA); settings: Ramos cell-derived VLA-4, recombinant human VCAM-1 coated plates
T1 construct: followed by 10 μl of Ramos cell-derived VLA-4; endogenous in cells; host or cells: Ramos cells (VLA-4 prepared from them)
Experimental: 1. VLA-4/VCAM-1 Screening Assay
VLA-4 antagonist activity, defined as ability to compete for binding to immobilized VCAM-1, was quantitated using a solid-phase, dual antibody ELISA. VLA-4 (α4β1 integrin) bound to VCAM-1 is detected by a complex of anti-integrin β1 antibody: HRP-conjugated anti-mouse IgG: chromogenic substrate (K-Blue). Initially, this entailed coating 96 well plates (Nunc Maxisorp) with recombinant human VCAM-1 (0.4 μg in 100 μl PBS), sealing each plate and then allowing the plates to stand at 4° C. for ^˜18 hr. […] On the day of assay, all plates are washed twice with VCAM Assay Buffer (200 μl/well of 50 mM Tris-HCl, 100 mM NaCl, 1 mM MnCl2, 0.05% Tween 20; pH 7.4). Test compounds are dissolved in 100% DMSO and then diluted 1:20 in VCAM Assay Buffer supplemented with 1 mg/mL BSA (i.e., final DMSO=5%). A series of 1:4 dilutions are performed to achieve a concentration range of 0.005 nM−1.563 μM for each test compound. 100 μl per well of each dilution is added to the VCAM-coated plates, followed by 10 μl of Ramos cell-derived VLA-4. These plates are sequentially mixed on a platform shaker for 1 min, incubated for 2 hr at 37° C., and then washed four times with 200 μl/well VCAM Assay Buffer. 100 μl of mouse anti-human integrin β1 antibody is added to each well (0.6 μg/mL in VCAM Assay Buffer+1 mg/mL BSA) and allowed to incubate for 1 hr at 37° C. At the conclusion of this incubation period, all plates are washed four times with VCAM Assay Buffer (200 μl/well). A corresponding second antibody, HRP-conjugated goat anti-mouse IgG (100 μl per well @ 1:800 dilution in VCAM Assay Buffer+1 mg/mL BSA), is then added to each well, followed by a 1 hr incubation at room temperature and concluded by three washes (200 μl/well) with VCAM Assay Buffer. Color development is initiated by addition of 100 μl K-Blue per well (15 min incubation, room temp) and terminated by addition of 100 μl Red Stop Buffer per well. All plates are then read in a UV/V is spectrophotometer at 650 nM. Results are calculated as % inhibition of total binding (i.e., VLA-4+VCAM-1 in the absence of test compound).

[3] = target: T2, Ramos cells bearing cell-surface VLA-4 (α4β1 integrin) binding to VCAM-1 (Homo sapiens, UniProt P05556+P13612); assay: Ramos (VLA-4) / VCAM-1 Cell-Based Screening Assay (cell adhesion); settings: Calcein-AM labelled Ramos cells, VCAM-1 coated plates
T2 construct: Ramos cells bearing cell-surface VLA-4; endogenous in cells; host or cells: Ramos cells (VLA-4); VCAM-1 made in CHO cells
Experimental: 2. Ramos (VLA-4) / VCAM-1 Cell-Based Screening Assay Protocol
Soluble recombinant human VCAM-1 (mixture of 5- and 7-Ig domain) was purified from CHO cell culture media by immunoaffinity chromatography and maintained in a solution containing 0.1 M Tris-glycine (pH 7.5), 0.1 M NaCl, 5 mM EDTA, 1 mM PMSF, […] NaN3 and 10 μg/mL leupeptin. Calcein-AM was purchased from Molecular Probes Inc.
VLA-4 (α4β1 integrin) antagonist activity, defined as ability to compete with cell-surface VLA-4 for binding to immobilized VCAM-1, was quantitated using a Ramos-VCAM-1 cell adhesion assay. Ramos cells bearing cell-surface VLA-4, were labeled with a fluorescent dye (Calcein-AM) and allowed to bind VCAM-1 in the presence or absence of test compounds. A reduction in fluorescence intensity associated with adherent cells (% inhibition) reflected competitive inhibition of VLA-4 mediated cell adhesion by the test compound. Initially, this entailed coating 96 well plates (Nunc Maxisorp) with recombinant human VCAM-1 (100 ng in 100 μl PBS), sealing each plate and allowing the plates to stand at 4° C. for ^˜18 hr. The VCAM-coated plates were subsequently washed twice with 0.05% Tween-20 in PBS, and then blocked for 1 hr (room temperature) with 200 μl of Blocking Buffer (1% BSA/0.02% thimerosal) to reduce non-specific binding. Following the incubation with Blocking Buffer, plates were inverted, blotted and the remaining buffer aspirated. Each plate was then washed with 300 μl PBS, inverted and the remaining PBS aspirated.
Test compounds were dissolved in 100% DMSO and then diluted 1:25 in VCAM Cell Adhesion Assay Buffer (4 mM CaCl2, 4 mM MgCl2 in 50 mM TRIS-HCl, pH 7.5) (final DMSO=4%). A series of eight 1:4 dilutions were performed for each compound (general concentration range of 1 nM-12,500 nM). 100 μl/well of each dilution was added to the VCAM-coated plates, followed by 100 μl of Ramos cells (200,000 cells/well in 1% BSA/PBS). Plates containing test compounds and Ramos cells were allowed to incubate for 45 min at room temperature, after which 165 μl/well PBS was added. Plates were inverted to remove non-adherent cells, blotted and 300 μl/well PBS added. Plates were again inverted, blotted and the remaining buffer gently aspirated. 100 μl Lysis Buffer (0.1% SDS in 50 mM TRIS-HCl, pH 8.5) was added to each well and agitated for 2 min on a rotary shaking platform. The plates were then read for fluorescence intensity on a Cytofluor 2300 (Millipore) fluorescence measurement system (excitation=485 nm, emission=530 nm).

T2 sequence (P13612 34-1032): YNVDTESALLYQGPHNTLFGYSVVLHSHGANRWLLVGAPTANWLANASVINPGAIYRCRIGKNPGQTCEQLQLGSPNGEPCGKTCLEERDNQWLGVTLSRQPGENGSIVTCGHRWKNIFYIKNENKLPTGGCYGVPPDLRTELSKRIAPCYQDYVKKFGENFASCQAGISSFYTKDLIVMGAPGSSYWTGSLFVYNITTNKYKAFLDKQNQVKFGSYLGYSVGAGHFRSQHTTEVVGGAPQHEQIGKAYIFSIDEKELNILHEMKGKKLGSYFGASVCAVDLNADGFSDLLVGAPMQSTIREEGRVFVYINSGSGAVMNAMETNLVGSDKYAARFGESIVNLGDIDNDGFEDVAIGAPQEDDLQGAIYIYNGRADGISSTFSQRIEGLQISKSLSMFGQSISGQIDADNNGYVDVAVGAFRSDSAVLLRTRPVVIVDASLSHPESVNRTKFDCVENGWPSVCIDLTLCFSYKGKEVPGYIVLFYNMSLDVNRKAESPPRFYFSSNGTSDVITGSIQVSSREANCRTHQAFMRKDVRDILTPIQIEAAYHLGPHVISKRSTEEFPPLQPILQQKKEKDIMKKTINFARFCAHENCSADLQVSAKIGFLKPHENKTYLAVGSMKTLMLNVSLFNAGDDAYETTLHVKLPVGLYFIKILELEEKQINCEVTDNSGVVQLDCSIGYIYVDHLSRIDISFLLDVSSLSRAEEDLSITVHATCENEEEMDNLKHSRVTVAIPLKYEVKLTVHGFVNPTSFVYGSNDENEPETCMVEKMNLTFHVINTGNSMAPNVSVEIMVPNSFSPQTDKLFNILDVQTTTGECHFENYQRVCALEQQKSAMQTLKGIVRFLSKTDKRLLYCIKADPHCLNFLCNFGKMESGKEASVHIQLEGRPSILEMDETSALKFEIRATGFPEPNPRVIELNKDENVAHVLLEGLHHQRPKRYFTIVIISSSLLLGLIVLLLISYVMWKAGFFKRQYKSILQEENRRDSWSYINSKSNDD
T2 sequence (P05556 21-798): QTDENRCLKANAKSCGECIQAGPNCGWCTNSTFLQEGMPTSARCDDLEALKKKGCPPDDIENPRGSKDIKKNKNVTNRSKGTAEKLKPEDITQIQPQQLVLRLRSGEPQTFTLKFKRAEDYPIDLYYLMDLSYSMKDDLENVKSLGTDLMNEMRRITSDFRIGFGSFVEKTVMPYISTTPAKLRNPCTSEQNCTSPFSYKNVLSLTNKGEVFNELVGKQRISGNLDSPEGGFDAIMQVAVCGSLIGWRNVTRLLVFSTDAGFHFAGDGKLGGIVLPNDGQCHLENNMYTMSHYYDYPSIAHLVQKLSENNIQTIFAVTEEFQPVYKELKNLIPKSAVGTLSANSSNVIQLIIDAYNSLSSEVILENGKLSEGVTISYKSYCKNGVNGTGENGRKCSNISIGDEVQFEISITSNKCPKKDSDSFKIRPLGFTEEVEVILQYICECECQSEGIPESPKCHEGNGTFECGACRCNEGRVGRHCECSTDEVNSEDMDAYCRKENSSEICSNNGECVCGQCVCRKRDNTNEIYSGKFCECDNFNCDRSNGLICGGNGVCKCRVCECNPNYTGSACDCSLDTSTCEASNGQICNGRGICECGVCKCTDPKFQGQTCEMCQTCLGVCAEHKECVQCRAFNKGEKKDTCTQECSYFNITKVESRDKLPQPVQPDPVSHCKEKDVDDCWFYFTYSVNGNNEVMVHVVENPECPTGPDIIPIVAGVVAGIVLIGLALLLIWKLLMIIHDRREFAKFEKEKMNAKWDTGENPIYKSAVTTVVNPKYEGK
T1 sequence (P13612 34-1032): as the sequence (P13612 34-1032) above
T1 sequence (P05556 21-798): as the sequence (P05556 21-798) above

Structure (SMILES)	IC50 [2]	IC50 [3]	melting point	number and percent of inflammatory cells present in the lavage fluid relative to vehicle treated control animals [1]
COCCC1(C(=S)N[C@@H](Cc2ccc([N+](=O)[O-])cc2)C(=O)OC)CCCC1 [Example 1, N-[[1-(2-methoxyethyl)cyclopentyl]thioxomethyl]-4-nitro-L-phenylalanine methyl ester]				significant decrease
CNC(=O)NCCC1(C(=S)N[C@@H](Cc2ccc(NC(=O)c3c(Cl)cccc3Cl)cc2)C(=O)O)CCCC1 [Example 11]	5.6 nM	42.5 nM		
Cc1cccc(Cl)c1C(=S)N[C@@H](Cc1ccc(NC(=O)c2c(Cl)cccc2Cl)cc1)C(=O)O [Example 18, 4-[[(2,6-dichlorophenyl)carbonyl]amino]-N-[(2-chloro-6-methylphenyl)thioxomethyl]-L-phenylalanine]	0.47 nM	60 nM		
CCc1cccc(C)c1C(=S)N[C@@H](Cc1ccc(NC(=O)c2c(Cl)cccc2Cl)cc1)C(=O)O [Example 25, 4-[[(2,6-dichlorophenyl)carbonyl]amino]-N-[(2-ethyl-6-methylphenyl)thioxomethyl]-L-phenylalanine]	6 nM	101 nM		
CCc1cccc(C)c1C(=S)N[C@@H](Cc1ccc(N2C(=O)[C@@H](Cc3cccnc3)N(C(C)=O)[C@@H]2c2ccccc2)cc1)C(=O)O [Example 29, 4-[(2S,4R)-3-acetyl-5-oxo-2-phenyl-4-[(pyridin-3-yl)methyl]imidazolidin-1-yl]-N-[(2-ethyl-6-methylphenyl)thioxomethyl]-L-phenylalanine]		220 nM		
O=C(Nc1ccc(C[C@H](NC(=S)c2ccccc2F)C(=O)O)cc1)c1c(Cl)cccc1Cl [Example 34, 4-[[(2,6-dichlorophenyl)carbonyl]amino]-N-[(2-fluorophenyl)thioxomethyl]-L-phenylalanine]		4180 nM		
O=C(Nc1ccc(C[C@H](NC(=S)c2ccccc2C(F)(F)F)C(=O)O)cc1)c1c(Cl)cccc1Cl [Example 39, 4-[[(2,6-dichlorophenyl)carbonyl]amino]-N-[[2-(trifluoromethyl)phenyl]thioxomethyl]-L-phenylalanine]		784 nM		
Cc1ccnc(C)c1C(=O)Nc1ccc(C[C@H](NC(=S)C2(CCCCS(C)(=O)=O)CCCC2)C(=O)O)cc1 [Example 53, 4-[[(2,4-dimethylpyridin-3-yl)carbonyl]amino]-N-[[1-[4-(methylsulfonyl)butyl]-cyclopentyllthioxomethyl]-L-phenylalaninetrifluoroacetic acid salt]		148 nM		
Cc1cc(C(F)(F)F)c(C(=O)Nc2ccc(C[C@H](NC(=S)C3(CCCCS(C)(=O)=O)CCC3)C(=O)O)cc2)c(C)n1 [Example 84]		5.5 nM		

Further lines, with some results ahead:

IC50 [2]	IC50 [3]	melting point	Structure (SMILES)	number and percent of inflammatory cells present in the lavage fluid relative to vehicle treated control animals [1]
4 nM	66.5 nM		COCCC1(C(=S)N[C@@H](Cc2ccc(NC(=O)c3c(Cl)cccc3Cl)cc2)C(=O)O)CCCC1 [Example 3, 4-[[(2,6-dichlorophenyl)carbonyl]amino]-N-[[1-(2-methoxy-ethyl)cyclopentyl]thioxomethyl]-L-phenylalanine]	
1.5 nM	33 nM		CC(=O)NCCC1(C(=S)N[C@@H](Cc2ccc(NC(=O)c3c(Cl)cccc3Cl)cc2)C(=O)O)CCCC1 [Example 10, N-[[1-[2-(acetylamino)ethyl]cyclopentyl]thioxomethyl]-4-[[(2,6-dichlorophenyl)carbonyl]amino]-L-phenylalanine]	
	30 nM	200 to 202 °C	CS(=O)(=O)CCCCC1(C(=S)N[C@@H](Cc2ccc(NC(=O)c3c(Cl)cccc3Cl)cc2)C(=O)O)CCCC1 [Example 50, 4-[[(2,6-dichlorophenyl)carbonyl]amino]-N-[[1-[4-(methylsulfonyl)butyl]cyclopentyl]thioxomethyl]-L-phenylalanine]	
	8 nM		CS(=O)(=O)CCCCC1(C(=S)N[C@@H](Cc2ccc(NC(=O)c3c(Cl)cccc3Cl)cc2)C(=O)O)CCC1 [Example 62, 4-[[(2,6-dichlorophenyl)carbonyl]amino]-N-[[1-[4-(methylsulfonyl)-butyl]cyclobutyl]thioxomethyl]-L-phenylalanine]	
	926 nM	186 to 188 °C	CSCCCC1(C(=S)N[C@@H](Cc2ccc(NC(=O)c3c(Cl)cccc3Cl)cc2)C(=O)O)CCC1 [Example 71, 4-[[(2,6-dichlorophenyl)carbonyl]amino]-N-[[1-[3-(methylthio)propyl]cyclobutyl]-thioxomethyl]-L-phenylalanine]	
	341 nM		CS(=O)(=O)CCCC1(C(=S)N[C@@H](Cc2ccc(NC(=O)c3c(Cl)cccc3Cl)cc2)C(=O)O)CCC1 [Example 78, 4-[[(2,6-dichlorophenyl)carbonyl]amino]-N-[[1-[3-(methylsulfonyl)propyl]cyclobutyl]thioxomethyl]-L-phenylalanine]	
